# From patent EP0184861A1, “Derivatives of the 3-mercapto-2-oxo-1-pyrrolidinacetic acid, process for their preparation and pharmaceutical compositions containing them” (PROTER S.p.A., priority 1984, dated 1986)
# How the values were obtained:
# [1] = test system: fluid of the respiratory tract; assay: expectorant activity: fluorescein elimination in the fluid of the respiratory tract; format: in vivo; details: in comparison to the controls; dose 1 mM/kg/os
# [2] = test system: 4% mucin suspension; assay: mucolithic activity "in vitro" with a 4% mucin suspension (viscosity reduction); format: biochemical; details: molar concentration 0,012 M
# From the text: The 3-mercapto-2-oxo-1-pyrrolidinyl acetic acid (V) and its derivatives are endowed with interesting phamacological properties; particularly they are endowed with a relevant mucolithic, expectorant and anti-cough activity and moreover show a very low toxicity.
# [3] = acute toxicity in the rat; details: in vivo, male and female rat
# From the text: (§1) Thanks to their pharmacological properties and to the absence of toxicity, the compounds of formula I and their possible pharmaceutically acceptable salts may be used as drugs in the treatment of diseases of the respiratory tract.
# [4] = acute toxicity in the mouse; details: in vivo, male and female mouse
# From the text: as §1
# [5] = tested after a suitable hydrolysis of the thioester
Structure (SMILES),increases of escretion of the colouring matter [1] [%],viscosity reduction [2] [%],LD50 ([3]; ip) [mg/kg],LD50 ([3]; oral route) [mg/kg],LD50 ([4]; ip) [mg/kg],LD50 ([4]; oral route) [mg/kg],"viscosity reduction [2, 5] [%]"
"CC(=O)N[C@@H](CS)C(=O)O [N-acetyl-L-cysteine, reference compound]",29.63,12.69,,,,,
"O=C(O)CN1CCC(S)C1=O (stereo not drawn) [V, 3-mercapto-2-oxo-1-pyrrolidinyl acetic acid]",52.92,20.95,> 1500,> 5000,> 2000,> 3000,
"O=C(O)CN1CCC(SC(=O)c2cccs2)C1=O (stereo not drawn) [VI, 3-(2-thenoylthio)-2-oxo-1-pyrrolidinyl acetic acid]",54.26,,> 1500,> 5000,> 2000,> 3000,18.22
"O=C(O)CN1CCC(SC(=O)c2ccccc2)C1=O (stereo not drawn) [VII, 3-benzoylthio-2-oxo-l-pyrrolidinyl acetic acid]",,,,,,,16.13
